Experimental data as given in patent publication US20230192700A1, “PYRAZOLOPYRAZINES ACTING ON CANCERS VIA INHIBITION OF CDK12” (Bayer Aktiengesellschaft, priority 2020, published 2023).
Read-outs that look alike come from different tables or passages of the source.

Legend:
CDK9/CyclinT1 = target: T1, CDK9/CyclinT1 (Homo sapiens, UniProt P50750); experiment: CDK9/CycT1 high ATP kinase assay (TR-FRET); type: biochemical; details: 2 mM ATP (high ATP); median; read-out: CDK9/CyclinT1, 2 mM ATP (high ATP) IC50 - [mol/l] (median)
T1 construct: Recombinant full-length His-tagged human CDK9 and CycT1; His-tag; purchased Life Technologies PV4131; host or cells: insect cells
T1 sequence (P50750 whole entry): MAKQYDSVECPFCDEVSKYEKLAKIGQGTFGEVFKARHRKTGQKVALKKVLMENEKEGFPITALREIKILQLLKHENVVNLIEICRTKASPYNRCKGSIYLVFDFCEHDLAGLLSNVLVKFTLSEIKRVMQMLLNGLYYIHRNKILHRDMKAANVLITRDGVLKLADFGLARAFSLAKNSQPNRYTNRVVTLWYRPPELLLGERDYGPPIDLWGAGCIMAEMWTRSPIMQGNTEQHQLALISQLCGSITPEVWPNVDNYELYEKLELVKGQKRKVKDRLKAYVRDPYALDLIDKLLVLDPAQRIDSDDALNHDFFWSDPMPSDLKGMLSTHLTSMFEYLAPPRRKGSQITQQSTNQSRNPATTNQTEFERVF
T1 sequence (O60563 whole entry partner): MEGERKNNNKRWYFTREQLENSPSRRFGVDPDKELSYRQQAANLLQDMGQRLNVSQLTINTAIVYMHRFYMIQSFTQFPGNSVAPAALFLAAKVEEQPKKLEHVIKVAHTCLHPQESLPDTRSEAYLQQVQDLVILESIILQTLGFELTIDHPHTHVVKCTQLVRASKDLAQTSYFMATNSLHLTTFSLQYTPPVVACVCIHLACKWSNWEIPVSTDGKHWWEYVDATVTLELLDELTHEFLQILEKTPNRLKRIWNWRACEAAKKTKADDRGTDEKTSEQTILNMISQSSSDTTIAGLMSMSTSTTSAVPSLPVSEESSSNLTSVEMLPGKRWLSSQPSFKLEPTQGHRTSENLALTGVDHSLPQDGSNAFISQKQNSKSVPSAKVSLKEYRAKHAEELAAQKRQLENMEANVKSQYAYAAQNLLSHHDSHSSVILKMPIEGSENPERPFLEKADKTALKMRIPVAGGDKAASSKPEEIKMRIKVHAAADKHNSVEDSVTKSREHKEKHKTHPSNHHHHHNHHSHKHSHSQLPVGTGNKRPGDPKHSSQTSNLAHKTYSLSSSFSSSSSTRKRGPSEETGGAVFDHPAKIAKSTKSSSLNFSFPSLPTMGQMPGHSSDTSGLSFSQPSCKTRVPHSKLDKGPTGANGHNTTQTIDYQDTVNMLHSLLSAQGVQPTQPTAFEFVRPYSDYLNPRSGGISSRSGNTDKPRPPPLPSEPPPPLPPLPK
Description: 2.5 CDK9/CycT1 High ATP Kinase Assay
CDK9/CycT1 -inhibitory activity of compounds of the present invention at a high ATP concentration after preincubation of enzyme and test compounds was quantified employing the CDK9/CycT1 TR-FRET assay as described in the following paragraphs.
Recombinant full-length His-tagged human CDK9 and CycT1, expressed in insect cells and purified by Ni-NTA affinity chromatography, were purchased from Life Technologies (Cat. No PV4131). As substrate for the kinase reaction biotinylated peptide biotin-Ttds-YISPLKSPYKISEG (C-terminus in amide form) was used which can be purchased e.g. form the company JERINI peptide technologies (Berlin, Germany).
For the assay 50 nanoL of a 100 fold concentrated solution of the test compound in DMSO was pipetted into either a black low volume 384 well microtiter plate or a black 1536 well microtiter plate (both Greiner Bio-One, Frickenhausen, Germany), 2 microL of a solution of CDK9/CycT1 in aqueous assay buffer [50 millimol/L Tris/HCl pH 8.0, 10 millimol/L MgCl2, 1.0 millimol/L dithiothreitol, 0.1 millimol/L sodium ortho-vanadate, 0.01% (v/v) Nonidet-P40 (Sigma)] were added and the mixture was incubated for 15 min at 22° C. to allow pre-binding of the test compounds to the enzyme before the start of the kinase reaction. Then the kinase reaction was started by the addition of 3 microL of a solution of adenosine-tri-phosphate (ATP, 3.3 millimol/L=>final conc. in the 5 microL assay volume is 2 millimol/L) and substrate (1.25 micromol/L =>final conc. in the 5 microL assay volume is 0.75 micromol/L) in assay buffer and the resulting mixture was incubated for a reaction time of 25 min at 22° C. The concentration of CDK9/CycT1 was adjusted depending of the activity of the enzyme lot and was chosen appropriate to have the assay in the linear range, typical concentrations were in the range of 0.5 microg/mL. The reaction was stopped by the addition of 3 microL of a solution of TR-FRET detection reagents (0.33 micromol/L streptavidine-XL665 [Cisbio Bioassays, Codolet, France] and 1.67 nanomol/L anti-RB(pSer807/pSer811)-antibody from BD Pharmingen [#558389] and 2 nanomol/L LANCE EU-W1024 labeled anti-mouse IgG antibody [Perkin-Elmer, product no. AD0077]) in an aqueous EDTA-solution (167 millimol/L EDTA, 0.2% (w/v) bovine serum albumin in 100 millimol/L HEPES pH 7.5).
The resulting mixture was incubated 1 h at 22° C. to allow the formation of complex between the phosphorylated biotinylated peptide and the detection reagents. Subsequently the amount of phosphorylated substrate was evaluated by measurement of the resonance energy transfer from the Eu-chelate to the streptavidine-XL. Therefore, the fluorescence emissions at 620 nm and 665 nm after excitation at 350 nm was measured in a TR-FRET reader, e.g. a Pherastar (BMG Labtechnologies, Offenburg, Germany) or a Viewlux (Perkin-Elmer). The ratio of the emissions at 665 nm and at […] was taken as the measure for the amount of phosphorylated substrate. The data were normalised (enzyme reaction without inhibitor=0% inhibition, all other assay components but no enzyme=100% inhibition).

[1] = system: BRCA1 mRNA expression in MDA-MB-231 cells; experiment: qRT-PCR assay: inhibition of BRCA1 mRNA expression in MDA-MB-231 cells; type: cell-based, human; details: 24 h exposure, BRCA1 mRNA normalised to GAPDH, median, read-out: RTqPCR-MDA-MB-231 IC50 [mol/l] BRCA1 (median)
Description: 3. qRT-PCR Assay: BRCA1, ATR, MCL1 in MDA-MB-231, CAL-120
Tissue cultured human MDA-MB-231 human breast cancer cells were plated in 500 microL per well at 200,000 cells/well in a 24 well microtiter plate. After 24 h, the cells were exposed continuously for 24 h to test substances (substances were added with Tecan HP D300 Dispenser). RNA was prepared using Qiagen RNeasy MiniKit (#74106), RNA was quantified using a NanoDrop Equipment, and 600 nano gamms of RNA was coverted to cDNA using a SuperScript VILO kit (Thermofisher #11755050) followed by qPCR amplification. BRCA1 and ATR gene expression was measured by RT-qPCR and normalised to GAPDH housekeeping gene expression. qPCR primer sets have been purchased from Thermo Fisher Scientific/Applied Biosystems: BRCA1, # Hs 01556193; ATR, #Hs 00992123; GAPDH, #Hs 03929097.

| SMILES | IC50 (CDK9/CyclinT1) | IC50 ([1]; Homo sapiens, MDA-MB-231, 24 h) | IC50 [1] |
| --- | --- | --- | --- |
| Fc1ccc2[nH]c(CNc3nn(C4CCOCC4)c4nc(C5CC5)cnc34)nc2c1F [Example 32, 6-cyclopropyl-N-[(4,5-difluoro-1H-benzimidazol-2-yl)methyl]-1-(oxan-4-yl)-1H-pyrazolo[3,4-b]pyrazin-3-amine] | > 20000 nM | 29 nM | – |
| Fc1ccc2[nH]c(CNc3nn(C4CCOCC4)c4nc(C5CC5)cnc34)nc2c1 [Example 53, 6-cyclopropyl-N-[(5-fluoro-1H-benzimidazol-2-yl)methyl]-1-(oxan-4-yl)-1H-pyrazolo[3,4-b]pyrazin-3-amine] | > 20000 nM | 10.9 nM | – |
| OC[C@H]1C[C@H](n2nc(NCc3nc4ccccc4[nH]3)c3ncc(C4CC4)nc32)C1 [Example 46, [trans-3-(3-{[(1H-benzimidazol-2-yl)methyl]amino}-6-cyclopropyl-1H-pyrazolo[3,4-b]pyrazin-1-yl)cyclobutyl]methanol] | > 20000 nM | 4.02 nM | – |
| CN1CCC(n2nc(NCc3nc4ccccc4[nH]3)c3ncc(C4CC4)nc32)C1 (single isomer, unassigned) [Example 78, (+) or (−)-N-[(1H-benzimidazol-2-yl)methyl]-6-cyclopropyl-1-(1-methylpyrrolidin-3-yl)-1H-pyrazolo[3,4-b]pyrazin-3-amine] | > 20000 nM | 15.6 nM | – |
| O=CO.c1ccc(-n2nc(NCc3nc4ccccc4[nH]3)c3ncc(C4CC4)nc32)cc1 [Example 13, formic acid—N-[(1H-benzimidazol-2-yl)methyl]-6-cyclopropyl-1-phenyl-1H-pyrazolo[3,4-b]pyrazin-3-amine (1/1)] | > 20000 nM | 39 nM | – |
| CN1CCC(n2nc(NCc3nc4cc(F)ccc4[nH]3)c3ncc(C4CC4)nc32)CC1 [Example 4, 6-cyclopropyl-N-[(5-fluoro-1H-benzimidazol-2-yl)methyl]-1-(1-methylpiperidin-4-yl)-1H-pyrazolo[3,4-b]pyrazin-3-amine] | > 20000 nM | 17.1 nM | – |
| Cc1ccc2[nH]c(CNc3nn(C4CCN(C)CC4)c4nc(C5CC5)cnc34)nc2c1C [Example 28, 6-cyclopropyl-N-[(4,5-dimethyl-1H-benzimidazol-2-yl)methyl]-1-(1-methylpiperidin-4-yl)-1H-pyrazolo[3,4-b]pyrazin-3-amine] | > 20000 nM | 16.8 nM | – |
| CN1CCCC(n2nc(NCc3nc4ccccc4[nH]3)c3ncc(C4CC4)nc32)CC1 (single isomer, unassigned) [Example 37, (+) or (−)-N-[(1H-benzimidazol-2-yl)methyl]-6-cyclopropyl-1-[(4R*)-1-methylazepan-4-yl]-1H-pyrazolo[3,4-b]pyrazin-3-amine] | > 20000 nM | 11.3 nM | – |
| O[C@H]1C[C@@H](n2nc(NCc3nc4ccccc4[nH]3)c3ncc(C4CC4)nc32)C1 [Example 40, cis-3-(3-{[(1H-benzimidazol-2-yl)methyl]amino}-6-cyclopropyl-1H-pyrazolo[3,4-b]pyrazin-1-yl)cyclobutan-1-ol] | > 20000 nM | 8.65 nM | – |
| CN1CCC(n2nc(NCc3nc4c(F)cccc4[nH]3)c3ncc(C4CC4)nc32)CC1 [Example 3, 6-cyclopropyl-N-[(4-fluoro-1H-benzimidazol-2-yl)methyl]-1-(1-methylpiperidin-4-yl)-1H-pyrazolo[3,4-b]pyrazin-3-amine] | > 20000 nM | 8.64 nM | – |
| OC[C@H]1C[C@@H](n2nc(NCc3nc4ccccc4[nH]3)c3ncc(C4CC4)nc32)C1 [Example 47, [cis-3-(3-{[(1H-benzimidazol-2-yl)methyl]amino}-6-cyclopropyl-1H-pyrazolo[3,4-b]pyrazin-1-yl)cyclobutyl]methanol] | > 20000 nM | 13.8 nM | – |
| CN1CCC(n2nc(NCc3nc4cc(Cl)c(F)cc4[nH]3)c3ncc(C4CC4)nc32)CC1 [Example 29, N-[(5-chloro-6-fluoro-1H-benzimidazol-2-yl)methyl]-6-cyclopropyl-1-(1-methylpiperidin-4-yl)-1H-pyrazolo[3,4-b]pyrazin-3-amine] | > 20000 nM | 9.47 nM | – |
| CC(C)n1nc(NCc2nc3ccccc3[nH]2)c2ncc(C3CC3)nc21 [Example 14, N-[(1H-benzimidazol-2-yl)methyl]-6-cyclopropyl-1-(propan-2-yl)-1H-pyrazolo[3,4-b]pyrazin-3-amine] | > 20000 nM | 42.9 nM | – |
| CN1CCCC(n2nc(NCc3nc4ccccc4[nH]3)c3ncc(C4CC4)nc32)CC1 (single isomer, unassigned) [Example 38, (−) or (+)-N-[(1H-benzimidazol-2-yl)methyl]-6-cyclopropyl-1-[(4R*)-1-methylazepan-4-yl]-1H-pyrazolo[3,4-b]pyrazin-3-amine] | > 20000 nM | – | 21.8 nM |
| COCCC(C)n1nc(NCc2nc3ccccc3[nH]2)c2ncc(C3CC3)nc21 (single isomer, unassigned; (-)) [Example 58, (−)-N-[(1H-benzimidazol-2-yl)methyl]-6-cyclopropyl-1-[4-methoxybutan-2-yl]-1H-pyrazolo[3,4-b]pyrazin-3-amine] | > 20000 nM | – | 28.2 nM |
| c1ccc2[nH]c(CNc3nn(C4CCOC4)c4nc(C5CC5)cnc34)nc2c1 (single isomer, unassigned) [Example 18, (-) or (+) -N-[(1H-benzimidazol-2-yl)methyl]-6-cyclopropyl-1-[oxolan-3-yl]-1H-pyrazolo[3,4-b]pyrazin-3-amine] | > 20000 nM | – | > 10.7 nM |
| CC1CC(n2nc(NCc3nc4ccccc4[nH]3)c3ncc(C4CC4)nc32)CCN1C (racemic) [Example 41, (±)-cis/trans-N-[(1H-benzimidazol-2-yl)methyl]-6-cyclopropyl-1-(1,2-dimethylpiperidin-4-yl)-1H-pyrazolo[3,4-b]pyrazin-3-amine] | > 20000 nM | 20.6 nM | – |
| Cn1nc(NCc2nc3ccccc3[nH]2)c2ncc(C3CC3)nc21 [Example 15, N-[(1H-benzimidazol-2-yl)methyl]-6-cyclopropyl-1-methyl-1H-pyrazolo[3,4-b]pyrazin-3-amine] | > 20000 nM | 131 nM | – |
| O[C@H]1C[C@@H](Cn2nc(NCc3nc4ccccc4[nH]3)c3ncc(C4CC4)nc32)C1 [Example 71, cis-3-[(3-{[(1H-benzimidazol-2-yl)methyl]amino}-6-cyclopropyl-1H-pyrazolo[3,4-b]pyrazin-1-yl)methyl]cyclobutan-1-ol] | > 20000 nM | 3.01 nM | – |
| c1ccc2[nH]c(CNc3nn(C4CCCC4)c4nc(C5CC5)cnc34)nc2c1 [Example 39, N-[(1H-benzimidazol-2-yl)methyl]-1-cyclopentyl-6-cyclopropyl-1H-pyrazolo[3,4-b]pyrazin-3-amine] | > 20000 nM | 107 nM | – |
